Assay results as given in publication PMC8621373, “New Bioactive Fused Triazolothiadiazoles as Bcl-2-Targeted Anticancer Agents” (International Journal of Molecular Sciences, 2021).
Values joined by “and” are separate entries in the source; they are usually repeats but may differ in a detail not shown here. Identical values can stand only once. “Also recorded” adds a separate entry of the source.

What was measured:
HeLa = experiment: Cell viability by MTT assay, HeLa; format: cell-based; conditions: Homo sapiens, growth inhibition, 72 h, mean ± SEM
Procedure: (§1) Human breast cancer (MDA-MB-231) and cervical cancer (HeLa) cells, obtained from the ATCC (Manassas, VA, USA), were maintained as previously described. Cytotoxic effects of the tested compounds were assessed using MTT assay. Briefly, 4000 cells in 0.1 mL of medium (Life Technologies, Paisley, UK) were seeded and allowed to adhere for 24 h. The cells were treated with different concentrations of the tested compounds (from 0.00001 to 100 µM) and incubated for 72 h. In total, 20 µL of (5 mg/mL) MTT reagent (3-[4,5-dimethylthiazol-2-yl]-2,5-diphenyl tetrazolium bromide) in PBS was added and incubated for 4 h. The developed purple colour following the addition of DMSO was measured using a Multiskan Go machine (spectrophotometer) at 570 nm absorbance. Each concentration experiment was repeated independently 6 times to establish reproducibility. The percentage cell viability was calculated following the formula below, and IC50 values were obtained by using GraphPad Prism 5 software (San Diego, CA, USA). Cell viability (%) = [(OD test − OD blank) ÷ (OD negative control − OD blank)] × 100(1)

His-tagged Bcl-2 protein = His-tagged Bcl-2 protein (Homo sapiens, UniProt P10415); experiment: Competitive ELISA binding assay (interruption of Bcl-2-Bim interaction); conditions: for IC50: competition with Bim peptide, mean and SEM of three independent measurements
Procedure: ELISA assay was performed to evaluate the ability of the compounds to compete with Bim protein and inhibit its interaction with Bcl-2 protein.. The addition of His-tagged Bcl-2 protein to a biotinylated Bim-coated plate according to our previously published protocol was followed by the addition of anti-His antibody (Abcam, Cambridge, UK) containing horseradish peroxidase enzyme (Qiagen, Crawley, UK), o-phenylenediamine (Sigma-Aldrich, UK) and hydrogen peroxide. The optical density was determined using a plate reader at wavelength of 450 nm. The experiments were carried out on three separate occasions, including both negative and positive controls. A plot of log nM concentration for each inhibitor against the percentage reduction in the Bim peptide was created, using non-linear regression curve analysis (GraphPad Prism 5, San Diego, CA, USA) and a software used to generate IC50 for the Bcl-2 inhibition activity.

MDA-MB-231 = experiment: Cell viability by MTT assay, MDA-MB-231; format: cell-based; conditions: Homo sapiens, growth inhibition, 72 h, mean ± SEM
Procedure: as §1

Jurkat = experiment: Cell viability CellTiter-Blue assay, Jurkat (Bcl-2-negative); format: cell-based, human; conditions: Bcl-2-negative cell line; for IC50: Homo sapiens, Jurkat, growth inhibition, CellTiter-Blue, 24 h, mean ± SEM
Procedure: (§2) Human acute myeloid leukemia KG1a and acute T-cell lymphocytic leukemia Jurkat cells were cultured and maintained as previously described. For each experiment, 15,000 cells in 0.1 mL of medium were seeded into a solid-black fluorescence 96-well plate and incubated for 24 h. The cells were treated with different concentrations of the test compounds (from 0.00001 to 100 µM) over a 10-fold dilution series and incubated for 24 h. CellTiter-Blue® solution was added, followed by reading of the fluorescence according to our previous protocol. IC50 values were obtained by using GraphPad Prism 5 software (San Diego, CA, USA). For each concentration, six independent experiments were carried out.

KG1a = experiment: Cell viability CellTiter-Blue assay, KG1a; format: cell-based, human; conditions: for IC50: Homo sapiens, KG-1a, growth inhibition, CellTiter-Blue, 24 h, mean ± SEM
Procedure: as §2

[1] = system: Bcl-2-expressing human cancer cell lines (MDA-MB-231, HeLa and KG1a); experiment: Growth inhibition of Bcl-2-expressing human cancer cell lines (summary); format: cell-based; conditions: span over MDA-MB-231, HeLa and KG1a, read-out: IC50 against Bcl-2-expressing cell lines
Procedure: as §1, with “Cell viability (%) = [(OD test − OD blank) ÷ (OD negative control − OD blank)] × 100(1)” left out
Human acute myeloid leukemia KG1a and acute T-cell lymphocytic leukemia Jurkat cells were cultured and maintained as previously described. For each experiment, 15,000 cells in 0.1 mL of medium were seeded into a solid-black fluorescence 96-well plate and incubated for 24 h. […] CellTiter-Blue® solution was added, followed by reading of the fluorescence according to our previous protocol. […]

Chain of His-tagged Bcl-2 protein (P10415 whole entry): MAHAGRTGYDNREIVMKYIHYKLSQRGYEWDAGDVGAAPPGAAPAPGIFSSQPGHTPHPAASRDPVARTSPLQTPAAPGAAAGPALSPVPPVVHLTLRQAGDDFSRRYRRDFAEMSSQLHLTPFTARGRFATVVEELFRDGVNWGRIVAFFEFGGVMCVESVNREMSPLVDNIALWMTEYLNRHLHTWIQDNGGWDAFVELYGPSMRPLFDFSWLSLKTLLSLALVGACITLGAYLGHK

| Compound | melting point [°C] | IC50 (HeLa) [µM] | IC50 (His-tagged Bcl-2 protein) | IC50 (MDA-MB-231) [µM] | activity against Jurkat cells (in words) (Jurkat) | IC50 (Jurkat) [µM] | IC50 (KG1a) [µM] | ELISA IC50 compared to (−)-gossypol positive control (His-tagged Bcl-2 protein; competitive Bcl-2 ELISA) | IC50 [1] [µM] | activity against KG1A cell line (in words) (KG1a; Acute Myeloid Leukemia cell line) |
| --- | --- | --- | --- | --- | --- | --- | --- | --- | --- | --- |
| COc1ccc(-c2nn3c(-c4c[nH]c5ccccc45)nnc3s2)cc1 [Compound 5b, 3-[6-(4-Methoxyphenyl)-[1,2,4]-triazolo[3,4-b]-[1,3,4]-thiadiazol-3-yl]-1H-indole] | 192 to 194 | 2.7 ± 0.9 | 1.14 ± 0.09 µM | 1.7 ± 0.61 | no activity | > 100 | 3.14 ± 0.19 | – | – | – |
| COc1cc(OC)cc(-c2nn3c(-c4c[nH]c5ccccc45)nnc3s2)c1 [Compound 5l, 3-[6-(3,5-Dimethoxyphenyl)-[1,2,4]-triazolo[3,4-b]-[1,3,4]-thiadiazol-3-yl]-1H-indole] | 193 to 195 | 1.42 ± 0.17 | 0.45 ± 0.03 µM | 0.35 ± 0.29 | no activity | > 100 | 1.15 ± 0.27 | – | – | – |
| Fc1cccc(-c2nn3c(-c4c[nH]c5ccccc45)nnc3s2)c1 [Compound 5g, 3-[6-(3-Fluorophenyl)-[1,2,4]-triazolo[3,4-b]-[1,3,4]-thiadiazol-3-yl]-1H-indole] | 183 to 185 | 1.99 ± 0.28 | – | 7.5 ± 0.98 | – | 65.1 ± 1.25 | 8.6 ± 0.22 | – | – | – |
| Cc1cc2c(C(C)C)c(O)c(O)c(C=O)c2c(O)c1-c1c(C)cc2c(C(C)C)c(O)c(O)c(C=O)c2c1O [Gossypol, gossypol, reference compound] | – | 4.43 ± 0.54 | – | 5.5 ± 0.35 | – | 18.1 ± 1.3 | 4.2 ± 0.35 | – | – | – |
| FC(F)(F)c1ccc(-c2nn3c(-c4c[nH]c5ccccc45)nnc3s2)cc1 [Compound 5i, 3-[6-(4-Trifluoromethylphenyl)-[1,2,4]-triazolo[3,4-b]-[1,3,4]-thiadiazol-3-yl]-1H-indole] | 194 to 196 | 2.7 ± 0.19 | 1.74 ± 0.15 µM | 4.22 ± 0.38 | no activity | > 100 | 2.19 ± 0.72 | – | – | – |
| Sc1nn2c(-c3c[nH]c4ccccc34)nnc2s1 [Compound 4, 3-(1H-Indol-3-yl)-[1,2,4]-triazolo[3,4-b]-[1,3,4]-thiadiazole-6-thiol] | 170 to 172 | 18.2 ± 0.6 | – | 15 ± 0.6 | – | 10.3 ± 0.14 | 28.4 ± 0.43 | – | – | – |
| Brc1ccc(-c2nn3c(-c4c[nH]c5ccccc45)nnc3s2)cc1 [Compound 5e, 3-[6-(4-Bromophenyl)-[1,2,4]-triazolo[3,4-b]-[1,3,4]-thiadiazol-3-yl]-1H-indole] | 196 to 198 | 9.8 ± 0.3 | 4.6 ± 0.19 µM | 8.29 ± 0.9 | no activity | > 100 | 4.9 ± 0.73 | – | – | – |
| Ic1ccc(-c2nn3c(-c4c[nH]c5ccccc45)nnc3s2)cc1 [Compound 5a, 3-[6-(4-Iodophenyl)-[1,2,4]-triazolo[3,4-b]-[1,3,4]-thiadiazol-3-yl]-1H-indole] | 183 to 185 | 0.54 ± 0.02 | – | 2.72 ± 0.32 | – | 8.12 ± 0.16 | 1.66 ± 0.03 | – | – | – |
| Brc1cccc(-c2nn3c(-c4c[nH]c5ccccc45)nnc3s2)c1 [Compound 5d, 3-[6-(3-Bromophenyl)-[1,2,4]-triazolo[3,4-b]-[1,3,4]-thiadiazol-3-yl]-1H-indole] | 179 to 182 | 6.48 ± 0.67 | – | 4.9 ± 0.75 | – | 45.5 ± 0.4 | 20.2 ± 0.46 | – | – | – |
| Clc1cccc(-c2nn3c(-c4c[nH]c5ccccc45)nnc3s2)c1 [Compound 5f, 3-[6-(3-Chlorophenyl)-[1,2,4]-triazolo[3,4-b]-[1,3,4]-thiadiazol-3-yl]-1H-indole] | 185 to 187 | 3.6 ± 0.52 | – | 12.5 ± 0.66 | – | 20.5 ± 0.52 | 10.2 ± 0.65 | – | – | – |
| COc1ccc(-c2nn3c(-c4c[nH]c5ccccc45)nnc3s2)c(OC)c1 [Compound 5k, 3-[6-(2,4-Dimethoxyphenyl)-[1,2,4]-triazolo[3,4-b]-[1,3,4]-thiadiazol-3-yl]-1H-indole] | 178 to 180 | 0.57 ± 0.08 | 0.32 µM and 0.3 µM and 0.34 µM and 0.36 µM | 0.7 ± 0.3 | without inhibiting; also recorded: no activity | > 100 | 0.31 ± 0.32 | two-fold lower | 0.31 to 0.7 | – |
| O=[N+]([O-])c1cccc(-c2nn3c(-c4c[nH]c5ccccc45)nnc3s2)c1 [Compound 5j, 3-[6-(3-Nitrophenyl)-[1,2,4]-triazolo[3,4-b]-[1,3,4]-thiadiazol-3-yl]-1H-indole] | – | 2.18 ± 0.73 | – | 3.6 ± 0.28 | – | 32.2 ± 1.2 | 6.82 ± 0.45 | – | – | – |
| O=[N+]([O-])c1ccc(-c2nn3c(-c4c[nH]c5ccccc45)nnc3s2)cc1 [Compound 5h, 3-[6-(4-Nitrophenyl)-[1,2,4]-triazolo[3,4-b]-[1,3,4]-thiadiazol-3-yl]-1H-indole] | 196 to 198 | 22.1 ± 0.45 | – | 3.16 ± 0.32 | – | 58.1 ± 1.3 | 34.5 ± 0.3 | – | – | – |
| Cc1ccc(-c2nn3c(-c4c[nH]c5ccccc45)nnc3s2)cc1 [Compound 5c, 3-(6-p-Tolyl-[1,2,4]-triazolo[3,4-b]-[1,3,4]-thiadiazol-3-yl)-1H-indole] | 201 to 203 | 12.5 ± 0.23 | – | 16.3 ± 0.19 | no activity | > 100 | > 100 | – | – | inactive |
